The values that follow come from ChEMBL document CHEMBL1125018, “Evidence for nitroxyl in the catalase-mediated bioactivation of the alcohol deterrent agent cyanamide” (J Med Chem, 1990).

Assay [1] can be described thus: Nitrous oxide formed in the oxidation of U-labeled [N15]-cyanamide by catalase/glucose-glucose oxidase using gas chromatography.
A short description of assay [2]: Nitrous oxide formed in the oxidation of unlabeled cyanamide by catalase/glucose-glucose oxidase using gas chromatography.
Assay [3] is described as follows: Nitrous oxide formed in the oxidation of 15NH2-labeled cyanamide by catalase/glucose-glucose oxidase using gas chromatography.

Several values for one entry are separate records, joined by “and”; a condition that tells them apart may be missing. Identical values can stand only once.

On to `N#CN`, for which the N20 formed is 538 nM in assay [1]; 497 nM and 440 nM in assay [2]; 186 nM in assay [3].
